Here are results for four compounds from patent US12435026B2, “Solabegron zwitterion and uses thereof” (B3AR THERAPEUTICS, INC., priority 2015, dated 2025).

Series [1] can be described thus: Solubility among forms of solabegron. In kind it is physicochemical. The text has this:
After extensive effort, applicants have newly discovered two crystalline forms of solabegron zwitterion. One form, form I, is an anhydrous crystalline form and is characterized by an x-ray powder diffraction pattern having peaks expressed in degrees 2θ (±2) at 6.2, 12.5; 18.8; 20.6; and 25.2. A second form, form II is a hydrate of isopropanol solvate and is characterized by an x-ray powder diffraction pattern having peaks expressed in degrees 2θ (±2) at 17.6, 18.7, 19.6, 20.1, 20.5, 23.7, and 25.8. (See EXAMPLE 3 and FIGS. 7, 12 and 14). […] After isolation the solabegron crystals can be dissolved and then crystallized to the solabegron HCL salt form, which is currently being investigated clinically. Of equal importance, the pharmaceutical compositions of solabegron zwitterion disclosed herein could be used as the active ingredient clinically, replacing the need for the HCl salt form of solabegron.

Series [2] can be described thus: Relative stability of solabegron zwitterion Forms I and II via slurry conditioning in IPA/H2O. The settings on record: for relative stability of crystal forms: slurry conditioning in IPA/H2O with different ratio (FIG. 10). The class given is physicochemical. The method, then: The relative stability of solabegron zwitterion Forms I and II was evaluated via slurry conditioning of either solabegron zwitterion Form I or a mixture of solabegron zwitterion Forms I and II in IPA/H2O with different ratio, for a) confirmation of relative stability of the two solabegron zwitterion forms, and b) rational process design and control. The table in FIG. 10 lists the testing conditions and results.

Series [3] relates to women with moderate to severe OAB. The conditions noted are these: Ohlstein et al., Eur. Urol. 2012; cited from earlier work.

On to `O=C(O)c1cccc(-c2cccc(NCCNC[C@H](O)c3cccc(Cl)c3)c2)c1` [Solabegron zwitterion], for which, in series [1], the “solubility relative to other forms of solabegron” value is on record as “least soluble form of solabegron”.

As to `O=C(O)c1cccc(-c2cccc(NCCNC[C@H](O)c3cccc(Cl)c3)c2)c1` [solabegron zwitterion Form II], the results for the “relative stability of crystal forms” value in series [2] and in series [2] (listed as form II solabegron zwitterion) were “more stable than solabegron zwitterion Form I” and “more stable than the form I solabegron zwitterion”, respectively.

For the compound `O=C(O)c1cccc(-c2cccc(NCCNC[C@H](O)c3cccc(Cl)c3)c2)c1` [solabegron zwitterion Form I], the “crystal form resulting from slurry conditioning” value in series [2] (starting with Form I alone or a mixture of Forms I and II, IPA/H2O with different ratio (FIG. 10)) is given as “Solabegron zwitterion Form II resulted from all tested conditions”.

For `O=C(O)c1cccc(-c2cccc(NCCNC[C@H](O)c3cccc(Cl)c3)c2)c1` [solabegron, 3′-[(2-{[(2R)-2-(3-chlorophenyl)-2-hydroxyethyl]amino}ethyl)amino]biphenyl-3-carboxylic acid], in series [3], the “safety and tolerability; adverse events as compared to placebo” value is “safe, well tolerated, and does not demonstrate significant differences in adverse events as compared to placebo”; the “symptoms of OAB” value was “significantly reduced the symptoms of OAB”.
